Laboratory results taken from PubChem BioAssay AID200 (DTP/NCI, 2004).
Values joined by “and” are separate entries in the source; they are usually repeats but may differ in a detail not shown here. Identical values can stand only once. Toxic doses and inconclusive results are not listed.

Test system: B6C3F1 mice, B16 melanoma ip, median survival T/C
Assay: NCI In Vivo Anticancer Drug Screen. Data for tumor model B16 Melanoma (intraperitoneal) in B6C3F1 mice
Conditions: endpoint: median survival time, higher = longer survival
Procedure, shortened: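 Mice bearing transplanted tumor were dosed with compound or vehicle, and survival was recorded. Activity is expressed as the treated-group measurement (T) divided by the vehicle control measurement (C).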

[1] = dose: 50.0 mg/kg/injection, schedule: Q01DX009 (ip), vehicle: Klucel (hydroxypropylcellulose) (HPC)
[2] = dose: 100.0 mg/kg/injection, schedule: Q01DX009 (ip), vehicle: Klucel (hydroxypropylcellulose) (HPC)
[3] = dose: 6.25 mg/kg/injection, schedule: Q01DX009 (ip), vehicle: Klucel (hydroxypropylcellulose) (HPC)
[4] = dose: 12.5 mg/kg/injection, schedule: Q01DX009 (ip), vehicle: Klucel (hydroxypropylcellulose) (HPC)
[5] = dose: 25.0 mg/kg/injection, schedule: Q01DX009 (ip), vehicle: Klucel (hydroxypropylcellulose) (HPC)
[6] = dose: 12.5 mg/kg/injection, schedule: Q01DX009 (ip), vehicle: saline with Tween-80
[7] = dose: 25.0 mg/kg/injection, schedule: Q01DX009 (ip), vehicle: saline with Tween-80
[8] = dose: 50.0 mg/kg/injection, schedule: Q01DX009 (ip), vehicle: saline with Tween-80
[9] = dose: 100.0 mg/kg/injection, schedule: Q01DX009 (ip), vehicle: saline with Tween-80
[10] = dose: 200.0 mg/kg/injection, schedule: Q01DX009 (ip), vehicle: Klucel (hydroxypropylcellulose) (HPC)
[11] = dose: 200.0 mg/kg/injection, schedule: Q01DX009 (ip), vehicle: saline with Tween-80
[12] = dose: 400.0 mg/kg/injection, schedule: Q01DX009 (ip), vehicle: Klucel (hydroxypropylcellulose) (HPC)
[13] = dose: 400.0 mg/kg/injection, schedule: Q01DX009 (ip), vehicle: saline with Tween-80
[14] = dose: 12.5 mg/kg/injection, schedule: Q01DX009 (ip), vehicle: saline
[15] = dose: 25.0 mg/kg/injection, schedule: Q01DX009 (ip), vehicle: saline

With `COC(=O)C[C@](O)(CCC(C)(C)O)C(=O)O[C@@H]1C(OC)=C[C@]23CCCN2CCc2cc4c(cc2[C@H]13)OCO4` the T/C (dose: 0.25 mg/kg/injection, schedule: Q01DX009 (ip), vehicle: saline) was 124 % of control, the T/C (dose: 0.5 mg/kg/injection, schedule: Q01DX009 (ip), vehicle: saline) was 154 % of control and 161 % of control and the T/C (dose: 1.0 mg/kg/injection, schedule: Q01DX009 (ip), vehicle: saline) was 161 % of control and 168 % of control. For the same compound, the T/C (dose: 2.0 mg/kg/injection, schedule: Q01DX009 (ip), vehicle: saline) was 168 % of control.
`CCCCNc1nc(N)nc(Nc2ccc(Br)cc2)c1N=O` was tested, and the T/C [1] was 97 % of control and the T/C [2] was 92 % of control.
For `CCCC(=O)O.CCCC(=O)O.CCCC(=O)O.CCCC(=O)O.[Rh].[Rh]`, the T/C (dose: 0.03 mg/kg/injection, schedule: Q01DX009 (ip), vehicle: saline + alcohol) was 100 % of control and 101 % of control, the T/C (dose: 0.06 mg/kg/injection, schedule: Q01DX009 (ip), vehicle: saline + alcohol) was 103 % of control and 104 % of control and the T/C (dose: 0.12 mg/kg/injection, schedule: Q01DX009 (ip), vehicle: saline + alcohol) was 100 % of control and 107 % of control. For the same compound, the T/C (dose: 0.25 mg/kg/injection, schedule: Q01DX009 (ip), vehicle: saline + alcohol) was 98 % of control and 101 % of control, the T/C (dose: 0.5 mg/kg/injection, schedule: Q01DX009 (ip), vehicle: saline + alcohol) was 101 % of control and 104 % of control and the T/C (dose: 1.0 mg/kg/injection, schedule: Q01DX009 (ip), vehicle: saline + alcohol) was 108 % of control.
`CCOc1ccc(C(C)c2cc3c(cc2OC)OCO3)cc1` (configuration not stated) was tested, and the T/C (dose: 25.0 mg/kg/injection, schedule: Q01DX009 (ip), vehicle: distilled water + Tween-80) was 123 % of control and the T/C (dose: 50.0 mg/kg/injection, schedule: Q01DX009 (ip), vehicle: distilled water + Tween-80) was 107 % of control.
In the case of `O=C([O][Bi]([c]1ccccc1)[c]1ccccc1)c1ccccc1`, the T/C [3] is reported as 101 % of control, the T/C [4] is reported as 96 % of control and the T/C [5] is reported as 88 % of control.
In the case of `COc1cccc2c1C(=O)c1c(O)c3c(c(O)c1C2=O)C[C@](O)(C(=O)CO)CC3OC1CC(N)C(OC2CCCCO2)C(C)O1` (some centres not stated), the T/C (dose: 1.5 mg/kg/injection, schedule: Q01DX009 (ip), vehicle: water) is reported as 382 % of control, the T/C (dose: 1.56 mg/kg/injection, schedule: Q01DX001 (ip), vehicle: water) is reported as 172 % of control and the T/C (dose: 3.12 mg/kg/injection, schedule: Q01DX001 (ip), vehicle: water) is reported as 206 % of control and 218 % of control. For the same compound, the T/C (dose: 6.25 mg/kg/injection, schedule: Q01DX001 (ip), vehicle: water) was 222 % of control and 317 % of control and the T/C (dose: 12.5 mg/kg/injection, schedule: Q01DX001 (ip), vehicle: water) was 229 % of control and 264 % of control.
For `C(C#CCN1CCOCC1)#CCN1CCOCC1`, the T/C [4] was 102 % of control, the T/C [6] was 105 % of control and the T/C [5] was 110 % of control. For the same compound, the T/C [7] was 106 % of control, the T/C [1] was 105 % of control and the T/C [8] was 106 % of control. For the same compound, the T/C [2] was 121 % of control, the T/C [9] was 111 % of control and the T/C [10] was 107 % of control. For the same compound, the T/C [11] was 98 % of control, the T/C [12] was 91 % of control and the T/C [13] was 86 % of control.
`CC(NC(=O)OCc1ccccc1)C(=O)NC(Cc1c[nH]c2ccccc12)C(=O)O` (configuration not stated) was tested, and the T/C [2] was 95 % of control, the T/C [10] was 100 % of control and the T/C [12] was 89 % of control.
In the case of `COc1ccccc1N=Nc1cc(S(=O)(=O)O)c2ccccc2c1O`, the T/C [14] is reported as 95 % of control, the T/C [15] is reported as 92 % of control and the T/C (dose: 50.0 mg/kg/injection, schedule: Q01DX009 (ip), vehicle: saline) is reported as 98 % of control. For the same compound, the T/C [11] was 87 % of control.
For `CC(=O)OCC1C(=O)OCC1C(=O)N1Cc2cc3ccccc3nc2C1` (configuration not stated), the T/C (dose: 8.0 mg/kg/injection, schedule: Q01DX009 (ip), vehicle: saline with Tween-80) was 115 % of control, the T/C (dose: 16.0 mg/kg/injection, schedule: Q01DX009 (ip), vehicle: saline with Tween-80) was 95 % of control and the T/C (dose: 32.0 mg/kg/injection, schedule: Q01DX009 (ip), vehicle: saline with Tween-80) was 100 % of control. For the same compound, the T/C (dose: 64.0 mg/kg/injection, schedule: Q01DX009 (ip), vehicle: saline with Tween-80) was 91 % of control and the T/C (dose: 128.0 mg/kg/injection, schedule: Q01DX009 (ip), vehicle: saline with Tween-80) was 88 % of control.
With `C=C(C)[C@H]1CN[C@H](C(=O)O)[C@H]1CC(=O)O` the T/C (dose: 0.31 mg/kg/injection, schedule: Q01DX009 (ip), vehicle: saline) was 96 % of control, the T/C (dose: 0.62 mg/kg/injection, schedule: Q01DX009 (ip), vehicle: saline) was 100 % of control and the T/C (dose: 1.25 mg/kg/injection, schedule: Q01DX009 (ip), vehicle: saline) was 91 % of control. The T/C (dose: 2.5 mg/kg/injection, schedule: Q01DX009 (ip), vehicle: saline) was 100 % of control, the T/C (dose: 5.0 mg/kg/injection, schedule: Q01DX009 (ip), vehicle: saline) was 90 % of control and the T/C (dose: 6.25 mg/kg/injection, schedule: Q01DX009 (ip), vehicle: saline) was 102 % of control. The T/C (dose: 10.0 mg/kg/injection, schedule: Q01DX009 (ip), vehicle: saline) was 86 % of control, the T/C [14] was 101 % of control and the T/C [15] was 93 % of control.
With `C1OC1CO[C@@H]1CO[C@H]2[C@@H]1OC[C@H]2OCC1CO1` (some centres not stated) the T/C [14] was 111 % of control, the T/C (dose: 12.5 mg/kg/injection, schedule: Q01DX009 (ip), vehicle: suspension in saline) was 111 % of control and the T/C [15] was 115 % of control. For the same compound, the T/C (dose: 25.0 mg/kg/injection, schedule: Q01DX009 (ip), vehicle: suspension in saline) was 111 % of control, the T/C (dose: 100.0 mg/kg/injection, schedule: Q01DX009 (ip), vehicle: saline) was 171 % of control and 182 % of control and the T/C (dose: 100.0 mg/kg/injection, schedule: Q01DX009 (ip), vehicle: suspension in saline) was 153 % of control. For the same compound, the T/C (dose: 200.0 mg/kg/injection, schedule: Q01DX009 (ip), vehicle: saline) was 220 % of control and 235 % of control and the T/C (dose: 200.0 mg/kg/injection, schedule: Q01DX009 (ip), vehicle: suspension in saline) was 205 % of control.
For `CC(NC(=O)c1ccccc1)C(=O)O` (configuration not stated), the T/C (dose: 40.0 mg/kg/injection, schedule: Q01DX009 (ip), vehicle: saline with Tween-80) was 97 % of control and the T/C (dose: 80.0 mg/kg/injection, schedule: Q01DX009 (ip), vehicle: saline with Tween-80) was 90 % of control.
In the case of `C/C=C1\C[C@@H]2C(OC)Nc3cc(O)c(OC)cc3C(=O)N2C1` (some centres not stated), the T/C (dose: 0.03 mg/kg/injection, schedule: Q01DX009 (ip), vehicle: suspension in saline) is reported as 103 % of control, the T/C (dose: 0.06 mg/kg/injection, schedule: Q01DX009 (ip), vehicle: suspension in saline) is reported as 109 % of control and the T/C (dose: 0.12 mg/kg/injection, schedule: Q01DX009 (ip), vehicle: suspension in saline) is reported as 106 % of control.
`CCOC(=O)Nc1cc2c(c(N)n1)N=C(c1ccccc1)CN2` was tested, and the T/C (dose: 1.25 mg/kg/injection, schedule: Q01DX009 (ip), vehicle: saline with Tween-80) was 96 % of control, the T/C (dose: 2.5 mg/kg/injection, schedule: Q01DX009 (ip), vehicle: saline with Tween-80) was 102 % of control and the T/C (dose: 5.0 mg/kg/injection, schedule: Q01DX009 (ip), vehicle: saline with Tween-80) was 107 % of control.
With `CC(C)(C)OC(=O)NC(CCCCNC(=O)C(F)(F)F)C(=O)ON1C(=O)CCC1=O` (configuration not stated) the T/C [6] was 91 % of control, the T/C [7] was 94 % of control and the T/C [8] was 96 % of control and 102 % of control.
With `CC(=O)Nc1c2sscc-2n(C)c1=O` the T/C (dose: 0.19 mg/kg/injection, schedule: Q01DX009 (ip), vehicle: saline) was 105 % of control, the T/C (dose: 0.39 mg/kg/injection, schedule: Q01DX009 (ip), vehicle: saline) was 93 % of control and the T/C (dose: 0.78 mg/kg/injection, schedule: Q01DX009 (ip), vehicle: saline) was 94 % of control.
In the case of `C[Si](C)(C)n1nnn(-c2ccccc2)c1=O`, the T/C [6] is reported as 101 % of control and 103 % of control, the T/C [7] is reported as 100 % of control and 105 % of control and the T/C [8] is reported as 119 % of control and 100 % of control. For the same compound, the T/C [9] was 92 % of control and 95 % of control, the T/C [11] was 93 % of control and 101 % of control and the T/C [13] was 95 % of control.
In the case of `COc1cccc(/C=C/[N+](=O)[O-])c1OC`, the T/C (dose: 3.12 mg/kg/injection, schedule: Q01DX009 (ip), vehicle: Klucel (hydroxypropylcellulose) (HPC)) is reported as 100 % of control, the T/C [3] is reported as 98 % of control and the T/C [4] is reported as 94 % of control. For the same compound, the T/C [5] was 96 % of control.
`O=NNc1ccc(Br)cn1` was tested, and the T/C (dose: 1.56 mg/kg/injection, schedule: Q01DX009 (ip), vehicle: water) was 110 % of control and 112 % of control, the T/C (dose: 3.12 mg/kg/injection, schedule: Q01DX009 (ip), vehicle: water) was 119 % of control and 124 % of control and the T/C (dose: 12.5 mg/kg/injection, schedule: Q01DX009 (ip), vehicle: water) was 158 % of control and 170 % of control.
With `Sc1ccccc1-n1c(-c2ccccc2)ccc1-c1ccccc1` the T/C [8] was 104 % of control and the T/C [9] was 87 % of control.
